One molecule from patent US20260259194A1, “METHOD OF MONITORING MESENCHIMAL STEM CELL (MSC) POTENCY AND IMPROVING MSC DIFFERENTIATION POTENTIAL” (AGENCY FOR SCIENCE, TECHNOLOGY AND RESEARCH, priority 2022, published 2026) can be followed below.

Common to all, as to assay type: cell-based, human
Assay [1] deals with MSCs. The assay is described as follows: Three-lineage differentiation of MSCs, staining (oil red, AP, alcian blue). The settings on record: compared with DMSO control. From the text:
(§1) Differentiation potential is the most important property of MSCs. To determine the effects of HOXA9 knockdown on the differentiation potential of MSCs into three lineages, HOXA9 knockdown and scrambled MSCs were induced into three lineages of differentiation. Compared with scrambled control, HOXA9 knockdown decreased oil red stain for oil droplet in adipogenesis, AP stain for alkaline phosphatase in osteogenesis and alcian blue stain for proteoglycan in chondrogenesis [FIG. 6a]. Stain data were validated by qPCR for lineage specific genes, compared with scrambled control, HOXA9 knockdown decreased adipogenenic genes (CEBPα, PPARγ, LPL and αP2), osteogenic genes (OC, OPN and ALP) and chondrogenic genes (COL2A1, AGC1, SOX9 and COL10A1) [FIG. 6b]. AP assay for quantifying alkaline phosphatase activity was consistent with AP stain, HOXA9 knockdown decreased alkaline phosphatase activity [FIG. 6b].
(§2) To validate the effects of HOXA9 knockdown on MSCs, effects of HOXA9 specific inhibitor DB818 on MSCs were determined.

For assay [2], the system named is MSCs. The assay is described as follows: qPCR for lineage specific genes in differentiated MSCs. The following applies: compared with control.
Source text: as §1, §2
Background: Quantitative PCR measures a nucleic acid by following its amplification.

Assay [3] concerns MSCs. The assay is described as follows: CFU-F (colony formation) of MSCs. The settings on record: compared with DMSO control. On the procedure: as §2
Assay [4] deals with MSCs. As to the kind of experiment: MSC proliferation with HOXA9 inhibitor. The settings on record: compared with DMSO control. On the procedure:
as §2

For the molecule `N=C(N)c1ccc(-c2ccc(-c3nc4ccc(C(=N)N)cc4[nH]3)s2)cc1` [DB818], the “oil red stain for oil droplet in adipogenesis” value in the assay with MSCs [1] (adipogenesis) is “decreased”. The “alcian blue stain for proteoglycan in chondrogenesis” value in the assay on MSCs [1] (chondrogenesis) is listed as “decreased”. Further, the “AP stain for alkaline phosphatase in osteogenesis” value in the assay with MSCs [1] (osteogenesis) was “decreased”. In the assay with MSCs [2], the “adipogenenic genes (CEBPα, PPARγ, LPL and αP2)” value was “decreased”; the “chondrogenic genes (COL2A1, AGC1, SOX9 and COL10A1)” value is recorded as “decreased”; the “osteogenic genes (RUNX2 and COL1A1)” value is given as “decreased”. Besides, the CFU-F entry in the assay with MSCs [3] is “abolished”. Besides, the MSC proliferation result in the assay with MSCs [4] was “abolished”.
